Source: PubChem BioAssay AID2060486 (Molecular Pharmacology Branch, DTP, NCI, 2025)

Tested on: IGROV1 complex spheroids (HUVEC, MSC), viability % test/control
Assay: Anticancer human tumor IGROV1 cell line growth inhibition [GQUAD];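 also: spheroids exposed to compounds for 7 days before readout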;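 as to viability, T/C: 100% = DMSO vehicle control viability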
Conditions: for IC50: curve of first compound; for viability, T/C: stronger effect = lower value
Summary of the method: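 Tumor cells were grown as complex spheroids with HUVEC endothelial cells and mesenchymal stem cells as stroma. G-quadruplex stabilizers were combined with targeted agents over half-log dilutions from near the clinical Cmax, or from 10 microM.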

[1] = second compound 0.0316 µM, first compound 0.0316 µM
[2] = second compound 0.0316 µM, first compound 0.1 µM
[3] = second compound 0.0316 µM, first compound 0.316 µM
[4] = second compound 0.0316 µM, first compound 1 µM
[5] = second compound 0.0316 µM, first compound 3.16 µM
[6] = second compound 0.0316 µM, first compound 10 µM
[7] = second compound 0.1 µM, first compound 0.0316 µM
[8] = second compound 0.1 µM, first compound 0.1 µM
[9] = second compound 0.1 µM, first compound 0.316 µM
[10] = second compound 0.1 µM, first compound 1 µM
[11] = second compound 0.1 µM, first compound 3.16 µM
[12] = second compound 0.1 µM, first compound 10 µM
[13] = second compound 0.316 µM, first compound 0.0316 µM
[14] = second compound 0.316 µM, first compound 0.1 µM
[15] = second compound 0.316 µM, first compound 0.316 µM
[16] = second compound 0.316 µM, first compound 1 µM
[17] = second compound 0.316 µM, first compound 3.16 µM
[18] = second compound 0.316 µM, first compound 10 µM
[19] = second compound 1 µM, first compound 0.0316 µM
[20] = second compound 1 µM, first compound 0.1 µM
[21] = second compound 1 µM, first compound 0.316 µM
[22] = second compound 1 µM, first compound 1 µM
[23] = second compound 1 µM, first compound 3.16 µM
[24] = second compound 1 µM, first compound 10 µM
[25] = second compound 3.16 µM, first compound 0.0316 µM
[26] = second compound 3.16 µM, first compound 0.1 µM
[27] = second compound 3.16 µM, first compound 0.316 µM
[28] = second compound 3.16 µM, first compound 1 µM
[29] = second compound 3.16 µM, first compound 3.16 µM
[30] = second compound 3.16 µM, first compound 10 µM
[31] = second compound 10 µM, first compound 0.0316 µM
[32] = second compound 10 µM, first compound 0.1 µM
[33] = second compound 10 µM, first compound 0.316 µM
[34] = second compound 10 µM, first compound 1 µM
[35] = second compound 10 µM, first compound 3.16 µM
[36] = second compound 10 µM, first compound 10 µM

C=CCn1c(=O)c2cnc(Nc3ccc(N4CCN(C)CC4)cc3)nc2n1-c1cccc(C(C)(C)O)n1 + Cc1cnc(CNC(=O)c2c(=O)c3ccc(N4CCCN(C)CC4)nc3n3c2sc2ccccc23)cn1
IC50 (second compound 0.0316 µM): 45.1 nM | IC50 (second compound 0.1 µM): < 31.6 nM | IC50 (second compound 0.316 µM): < 31.6 nM | IC50 (second compound 1 µM): < 31.6 nM | IC50 (second compound 3.16 µM): < 31.6 nM | IC50 (second compound 10 µM): < 31.6 nM | viability, T/C [1]: 59% | viability, T/C [2]: 29.8% | viability, T/C [3]: 5.19% | viability, T/C [4]: 2.29% | viability, T/C [5]: 2.42% | viability, T/C [6]: 1.97% | viability, T/C [7]: 23.5% | viability, T/C [8]: 18% | viability, T/C [9]: 4.3% | viability, T/C [10]: 2.46% | viability, T/C [11]: 2.38% | viability, T/C [12]: 2.57% | viability, T/C [13]: 16.9% | viability, T/C [14]: 9.27% | viability, T/C [15]: 4.48% | viability, T/C [16]: 2.42% | viability, T/C [17]: 2.95% | viability, T/C [18]: 2.48% | viability, T/C [19]: 9.95% | viability, T/C [20]: 9.65% | viability, T/C [21]: 3.88% | viability, T/C [22]: 3.14% | viability, T/C [23]: 3.18% | viability, T/C [24]: 3.24% | viability, T/C [25]: 11.6% | viability, T/C [26]: 7.96% | viability, T/C [27]: 4.12% | viability, T/C [28]: 3.52% | viability, T/C [29]: 3.96% | viability, T/C [30]: 3.47% | viability, T/C [31]: 7.24% | viability, T/C [32]: 6.29% | viability, T/C [33]: 4.68% | viability, T/C [34]: 3.1% | viability, T/C [35]: 4.62% | viability, T/C [36]: 2.93%

COc1ncnc(C2CC2)c1-c1ncc2cnn(Cc3ccc(-c4nc(C(F)(F)F)cn4C(C)C)cc3)c2n1 + Cc1cnc(CNC(=O)c2c(=O)c3ccc(N4CCCN(C)CC4)nc3n3c2sc2ccccc23)cn1
IC50 (second compound 0.0316 µM): 2110 nM | IC50 (second compound 0.1 µM): < 31.6 nM | IC50 (second compound 0.316 µM): < 31.6 nM | IC50 (second compound 1 µM): < 31.6 nM | IC50 (second compound 3.16 µM): < 31.6 nM | IC50 (second compound 10 µM): < 31.6 nM | viability, T/C [1]: 53.6% | viability, T/C [2]: 55.4% | viability, T/C [3]: 53% | viability, T/C [4]: 57.7% | viability, T/C [5]: 42.7% | viability, T/C [6]: 46.5% | viability, T/C [7]: 37.1% | viability, T/C [8]: 39.4% | viability, T/C [9]: 33% | viability, T/C [10]: 28.5% | viability, T/C [11]: 35.5% | viability, T/C [12]: 34.1% | viability, T/C [13]: 20.6% | viability, T/C [14]: 25.6% | viability, T/C [15]: 26.9% | viability, T/C [16]: 21.4% | viability, T/C [17]: 21.7% | viability, T/C [18]: 20.8% | viability, T/C [19]: 15.2% | viability, T/C [20]: 13.8% | viability, T/C [21]: 11.1% | viability, T/C [22]: 14.3% | viability, T/C [23]: 15.8% | viability, T/C [24]: 12.4% | viability, T/C [25]: 10.6% | viability, T/C [26]: 8.57% | viability, T/C [27]: 9.08% | viability, T/C [28]: 9.63% | viability, T/C [29]: 9.64% | viability, T/C [30]: 8.03% | viability, T/C [31]: 9.86% | viability, T/C [32]: 9.33% | viability, T/C [33]: 8.36% | viability, T/C [34]: 8.88% | viability, T/C [35]: 10.2% | viability, T/C [36]: 7.78%
